Test [1] concerns HCT 116 cells. Put plainly: CellTiter-Glo assay in HCT 116 cells. The test is classed as cell-based. As to conditions: 120 h; HCT 116 human colon carcinoma cells, 5 days incubation, cell viability (ATP luminescence). From the text:
CellTiter-Glo™ Assay in HCT 116 Cells:
The CellTiter-Glo™ Luminescent Cell Viability Assay (Promega) is a homogeneous method of determining the number of viable cells in culture based on quantitation of the ATP present, which signals the presence of metabolically active cells.
HCT 116 cells (human colon carcinoma, ATCC-No. CCl-247) were cultivated in RPMI 1640 medium with GlutaMAX™ I (Invitrogen, Cat-No. 61870-010), 5% Fetal Calf Serum (FCS, Sigma Cat-No. F4135 (FBS)); 100 Units/ml penicillin/100 μg/ml streptomycin (=Pen/Strep from Invitrogen Cat. No. 15140). For the assay the cells were seeded in 384 well plates, 1000 cells per well, in the same medium. The next day the test compounds were added in various concentrations ranging from 30 μM to 0.0015 μM (10 concentrations, 1:3 diluted). After 5 days the CellTiter-Glo™ assay was done according to the instructions of the manufacturer (CellTiter-Glo™ Luminescent Cell Viability Assay, from Promega). In brief: the cell-plate was equilibrated to room temperature for approximately 30 minutes and than the CellTiter-Glo™ reagent was added. The contents were carefully mixed for 15 minutes to induce cell lysis. After 45 minutes the luminescent signal was measured in Victor 2, (scanning multiwell spectrophotometer, Wallac).
• Medium: RPMI 1640 with GlutaMAX™ I (Invitrogen, Cat-Nr. 61870), 5% FCS (Sigma Cat.-No. F4135), Pen/Strep (Invitrogen, Cat No. 15140). • HCT116 (ATCC-No. CCl-247): 1000 cells in 60 μl per well of 384 well plate (Greiner 781098, μClear-plate white) • After seeding incubate plates 24 h at 37° C., 5% CO2 2nd. Day: Induction (Treatment with Compounds, 10 Concentrations):
In order to achieve a final concentration of 30 μM as highest concentration 3.5 μl of 10 mM compound stock solution were added directly to 163 μl media. Then step e) of the dilution procedure described below, was followed.

Test [2] concerns VEGF-induced HUVEC cells. Put plainly: CellTiter-Glo assay in VEGF-induced HUVEC cells. The test is classed as cell-based. As to conditions: Homo sapiens; Table 2; VEGF-induced (20 ng/ml) HUVEC cells, 72 hours, cell viability (ATP luminescence); read-out: IC50 HCT 116. As to the method: CellTiter-Glo™ Assay in VEGF-Induced HUVEC Cells:
HUVEC-c (Human Umbilical Vein Endothelial Cells, from Promocell Cat-No. C-12200) cells were trypsinized, spinned down and plated in 384-well plates at 1500 cells per well in 60 μl endothelial basal medium (EBM-2 from Promocell, Cat-No. C-22211) with 0.5% Fetal Calf Serum (FCS, Sigma Cat-No. F4135 (FBS)). Cells were incubated overnight at 37° C., and the next day, test compounds (stock solution 140 μmol/l in medium with 4.2% dimethylsulfoxide (DMSO)) were added in 5 μl medium over a final concentration range of 10 μmol/l to 0.5 nmol/l and 0.3% DMSO. Compounds were tested in triplicates. After 2 hrs 5 μl VEGF (VEGF 165, R&D Systems, Cat-No. 293-VE-010, stock solution 280 ng/ml in medium) was added to a final concentration of 20 ng/ml. Cells were incubated for 72 hours at 37° C. in medium. Cell number was quantitated using CellTiter-Glo™ Luminescent Cell Viability Assay (from Promega) according to the instructions of the supplier. This assay measures the number of viable cells per well by measurement of luminescent signal based on amount of cellular ATP. IC50 are determined using a non-linear curve fit (XLfit software (ID Business Solution Ltd., Guilford, Surrey, UK)) (see also CellTiter-Glo™ assay in HCT 116 cells above).
On the technique in general: In ATP-based viability assays light output follows the ATP content of the culture.

Each structure is given as a SMILES string.

As usually defined, the IC50 is the concentration needed to halve the response being measured. On to `CC(C)(C#N)c1ccc(NC(=O)Nc2ccc(Oc3ccnc(NCCCO)n3)cc2)cc1` [Example 24, 1-[4-(Cyano-dimethyl-methyl)-phenyl]-3-{4-[2-(3-Hydroxy-propylamino)-pyrimidin-4-yloxy]-phenyl}-urea], for which the IC50 in test [1] is 300 to 10000 nM.

As for `O=C(Nc1ccc(Oc2cc(NCCCO)ncn2)cc1)Nc1ccc(Cl)c(C(F)(F)F)c1` [Example 23, 1-(4-Chloro-3-trifluoromethyl-phenyl)-3-{4-[6-(3-hydroxy-propylamino)-pyrimidin-4-yloxy]-phenyl}-urea], the IC50 in test [2] fell in the range of 5 to 750 nM. Regarding `O=C(Nc1ccc(Oc2ccnc(NCCCO)n2)cc1)Nc1cccc(C(F)(F)F)c1` [Example 7, 1-{4-[2-(3-Hydroxy-propylamino)-pyrimidin-4-yloxy]-phenyl}-3-(3-trifluoromethyl-phenyl)-urea], the values for the concentration for half-maximal inhibition (IC50) in test [1] and in test [2] were 300 to 10000 nM and 5 to 750 nM, respectively. The matching figures for `CC1(C)CNc2cc(NC(=O)Nc3ccc(Oc4ccnc(NCCCO)n4)cc3)ccc21` [Example 29, 1-(3,3-Dimethyl-2,3-dihydro-1H-indol-6-yl)-3-{4-[2-(3-hydroxy-propylamino)-pyrimidin-4-yloxy]-phenyl}-urea]: 300 to 10000 nM and 5 to 750 nM. The matching figures for `O=C(Nc1ccc(Cl)c(C(F)(F)F)c1)Nc1ccc(Oc2ccnc(NCCCO)n2)cc1F` [Example 18, 1-(4-Chloro-3-trifluoromethyl-phenyl)-3-{2-fluoro-4-[2-(3-hydroxy-propylamino)-pyrimidin-4-yloxy]-phenyl}-urea]: 300 to 10000 nM and 5 to 750 nM. As to `O=C(Nc1ccc(Oc2ccnc(NCCCO)n2)cc1)Nc1ccc(OC(F)(F)F)cc1` [Example 3, 1-{4-[2-(3-Hydroxy-propylamino)-pyrimidin-4-yloxy]-phenyl}-3-(4-trifluoromethoxy-phenyl)-urea], the concentration for half-maximal inhibition (IC50) was 300 to 10000 nM in test [1] and 5 to 750 nM in test [2]. The matching figures for `O=C(Nc1ccc(Oc2ccnc(NCCCO)n2)cc1)Nc1ccc2c(c1)OC(F)(F)O2` [Example 28, 1-(2,2-Difluoro-benzo[1,3]dioxol-5-yl)-3-{4-[2-(3-hydroxy-propylamino)-pyrimidin-4-yloxy]-phenyl}-urea]: 300 to 10000 nM and 82 nM.

For `O=C(Nc1ccc(Oc2ccnc(NCCCCO)n2)cc1)Nc1ccc(Cl)c(C(F)(F)F)c1` [Example 10, 1-(4-Chloro-3-trifluoromethylphenyl)-3-{4-[2-(4-hydroxy-butylamino)-pyrimidin-4-yloxy]-phenyl}-urea], the IC50 in test [1] is 300 to 10000 nM; in test [2], 5 to 750 nM. In the case of `O=C(Nc1ccc(Oc2ccnc(NCCCO)n2)cc1)Nc1cc(C(F)(F)F)ccc1Cl` [Example 19, 1-(2-Chloro-5-trifluoromethyl-phenyl)-3-{4-[2-(3-hydroxy-propylamino)-pyrimidin-4-yloxy]-phenyl}-urea], the IC50 in test [2] was in the range of 5 to 750 nM. With `O=C(Nc1ccccc1)Nc1ccc(Oc2ccnc(NCCCO)n2)cc1` [Example 13, 1-{4-[2-(3-Hydroxy-propylamino)-pyrimidin-4-yloxy]-phenyl}-3-phenyl-urea], the values for the IC50 in test [1] and in test [2] were 300 to 10000 nM and 5 to 750 nM, respectively. For `CC(C#N)c1cccc(NC(=O)Nc2ccc(Oc3ccnc(NCCCO)n3)cc2)c1` (centres unmarked) [Example 26, 1-[3-(Cyano-methyl-methyl)-phenyl]-3-{4-[2-(3-hydroxy-propylamino)-pyrimidin-4-yloxy]-phenyl}-urea], the IC50 in test [1] is 300 to 10000 nM; in test [2], 5 to 750 nM. In the case of `O=C(Nc1ccc(Oc2ccnc(NCCCO)n2)c(F)c1)Nc1ccc(Cl)c(C(F)(F)F)c1` [Example 17, 1-(4-Chloro-3-trifluoromethyl-phenyl)-3-{3-fluoro-4-[2-(3-hydroxy-propylamino)-pyrimidin-4-yloxy]-phenyl}-urea], the IC50 fell in the range of 300 to 10000 nM in test [1] and 5 to 750 nM in test [2]. The matching figures for `O=C(Nc1ccc(Oc2ccnc(NCCCO)n2)cc1)Nc1ccc(Cl)c(C(F)(F)F)c1` [Example 9, 1-(4-Chloro-3-trifluoromethylphenyl)-3-{4-[2-(3-Hydroxy-propylamino)-pyrimidin-4-yloxy]-phenyl}-urea]: 3990 nM and 5 to 750 nM.

Take `O=C(Nc1ccc(Oc2cc(NCCO)ncn2)cc1)Nc1cccc(C(F)(F)F)c1` [Example 20, 1-{4-[6-(2-Hydroxy-ethylamino)-pyrimidin-4-yloxy]-phenyl}-3-(3-trifluoromethyl-phenyl)-urea]: the figures for the IC50 in test [1] and in test [2] were 300 to 10000 nM and 5 to 750 nM, respectively. The matching figures for `O=C(Nc1ccc(Oc2ccnc(NCCCO)n2)cc1)Nc1cc(C(F)(F)F)ccc1F` [Example 8, 1-(2-Fluoro-5-trifluoromethyl-phenyl)-3-{4-[2-(3-Hydroxy-propylamino)-pyrimidin-4-yloxy]-phenyl}-urea]: 300 to 10000 nM and 5 to 750 nM. The matching figures for `O=C(Nc1ccc(Oc2cc(NCCCO)ncn2)cc1)Nc1cccc(C(F)(F)F)c1` [Example 21, 1-{4-[6-(3-Hydroxy-propylamino)-pyrimidin-4-yloxy]-phenyl}-3-(3-trifluoromethyl-phenyl)-urea]: 300 to 10000 nM and 5 to 750 nM.

Consider `O=C(Nc1ccc(Oc2cc(NCCO)ncn2)cc1)Nc1ccc(Cl)c(C(F)(F)F)c1` [Example 22, 1-(4-Chloro-3-trifluoromethyl-phenyl)-3-{4-[6-(2-hydroxy-ethylamino)-pyrimidin-4-yloxy]-phenyl}-urea], for which the IC50 fell in the range of 300 to 10000 nM in test [1] and 5 to 750 nM in test [2]. Turning to `O=C(Nc1ccc(Oc2ccnc(NCCO)n2)cc1)Nc1ccc(Cl)c(C(F)(F)F)c1` [Example 11, 1-(4-Chloro-3-trifluoromethylphenyl)-3-{4-[2-(2-hydroxy-ethylamino)-pyrimidin-4-yloxy]-phenyl}-urea], the IC50 in test [1] is 300 to 10000 nM.

Regarding `CC(C)(C)c1cccc(NC(=O)Nc2ccc(Oc3ccnc(NCCCO)n3)cc2)c1` [Example 4, 1-(3-tert-Butyl-phenyl)-3-{4-[2-(3-Hydroxy-propylamino)-pyrimidin-4-yloxy]-phenyl}-urea], the IC50 in test [1] is 300 to 10000 nM; in test [2] it was 5 to 750 nM.

`O=C(Nc1ccc(Oc2ccnc(NCCCO)n2)cc1)Nc1cccc(OC(F)(F)F)c1` [Example 2, 1-{4-[2-(3-Hydroxy-propylamino)-pyrimidin-4-yloxy]-phenyl}-3-(3-trifluoromethoxy-phenyl)-urea]: the IC50 in test [1] is 670 nM; in test [2] it was 5 to 750 nM. The matching figures for `C[Si](C)(C)c1ccc(NC(=O)Nc2ccc(Oc3ccnc(NCCCO)n3)cc2)cc1` [Example 14, 1-{4-[2-(3-Hydroxy-propylamino)-pyrimidin-4-yloxy]-phenyl}-3-(4-trimethylsilanyl-phenyl)-urea]: 1520 nM and 5 to 750 nM. As to `O=C(Nc1ccc(Oc2ccnc(NCCCO)n2)c(Cl)c1)Nc1ccc(Cl)c(C(F)(F)F)c1` [Example 15, 1-(4-Chloro-3-trifluoromethyl-phenyl)-3-{3-chloro-4-[2-(3-hydroxy-propylamino)-pyrimidin-4-yloxy]-phenyl}-urea], the IC50 in test [2] was in the range of 5 to 750 nM. On the same count and under the same terms, under `CC(C)(C)c1ccc(NC(=O)Nc2ccc(Oc3ccnc(NCCCO)n3)cc2)cc1` [Example 5, 1-(4-tert-Butyl-phenyl)-3-{4-[2-(3-Hydroxy-propylamino)-pyrimidin-4-yloxy]-phenyl}-urea] stands 5 to 750 nM; under `COc1ccc(C(F)(F)F)cc1NC(=O)Nc1ccc(Oc2ccnc(NCCCO)n2)cc1` [Example 1, 1-{4-[2-(3-Hydroxy-propylamino)-pyrimidin-4-yloxy]-phenyl}-3-(2-methoxy-5-trifluoromethyl-phenyl)-urea], 67 nM.

These data come from patent publication US8080552B2, “Pyrimidyl derivatives as protein kinase inhibitors” (Hoffmann-LA Roche Inc., priority 2006, dated 2011).
